Measured values from patent US20250230159A1, “FUSED HETEROCYCLIC COMPOUNDS AS MODULATORS OF RAS SIGNALLING” (Shenzhen Ionova Life Science Co., Ltd., priority 2022, published 2025).

Each compound was assayed against KRAS-G12C/SOS1 interaction (Homo sapiens (Human), UniProt Q07889) (assay: Protein-Protein Interaction (PPI) assay, SOS1-KRAS binding assay kit (HTRF)). Conditions: not given.
Sequence of KRAS-G12C/SOS1 interaction (Q07889 whole entry, stated change not applied): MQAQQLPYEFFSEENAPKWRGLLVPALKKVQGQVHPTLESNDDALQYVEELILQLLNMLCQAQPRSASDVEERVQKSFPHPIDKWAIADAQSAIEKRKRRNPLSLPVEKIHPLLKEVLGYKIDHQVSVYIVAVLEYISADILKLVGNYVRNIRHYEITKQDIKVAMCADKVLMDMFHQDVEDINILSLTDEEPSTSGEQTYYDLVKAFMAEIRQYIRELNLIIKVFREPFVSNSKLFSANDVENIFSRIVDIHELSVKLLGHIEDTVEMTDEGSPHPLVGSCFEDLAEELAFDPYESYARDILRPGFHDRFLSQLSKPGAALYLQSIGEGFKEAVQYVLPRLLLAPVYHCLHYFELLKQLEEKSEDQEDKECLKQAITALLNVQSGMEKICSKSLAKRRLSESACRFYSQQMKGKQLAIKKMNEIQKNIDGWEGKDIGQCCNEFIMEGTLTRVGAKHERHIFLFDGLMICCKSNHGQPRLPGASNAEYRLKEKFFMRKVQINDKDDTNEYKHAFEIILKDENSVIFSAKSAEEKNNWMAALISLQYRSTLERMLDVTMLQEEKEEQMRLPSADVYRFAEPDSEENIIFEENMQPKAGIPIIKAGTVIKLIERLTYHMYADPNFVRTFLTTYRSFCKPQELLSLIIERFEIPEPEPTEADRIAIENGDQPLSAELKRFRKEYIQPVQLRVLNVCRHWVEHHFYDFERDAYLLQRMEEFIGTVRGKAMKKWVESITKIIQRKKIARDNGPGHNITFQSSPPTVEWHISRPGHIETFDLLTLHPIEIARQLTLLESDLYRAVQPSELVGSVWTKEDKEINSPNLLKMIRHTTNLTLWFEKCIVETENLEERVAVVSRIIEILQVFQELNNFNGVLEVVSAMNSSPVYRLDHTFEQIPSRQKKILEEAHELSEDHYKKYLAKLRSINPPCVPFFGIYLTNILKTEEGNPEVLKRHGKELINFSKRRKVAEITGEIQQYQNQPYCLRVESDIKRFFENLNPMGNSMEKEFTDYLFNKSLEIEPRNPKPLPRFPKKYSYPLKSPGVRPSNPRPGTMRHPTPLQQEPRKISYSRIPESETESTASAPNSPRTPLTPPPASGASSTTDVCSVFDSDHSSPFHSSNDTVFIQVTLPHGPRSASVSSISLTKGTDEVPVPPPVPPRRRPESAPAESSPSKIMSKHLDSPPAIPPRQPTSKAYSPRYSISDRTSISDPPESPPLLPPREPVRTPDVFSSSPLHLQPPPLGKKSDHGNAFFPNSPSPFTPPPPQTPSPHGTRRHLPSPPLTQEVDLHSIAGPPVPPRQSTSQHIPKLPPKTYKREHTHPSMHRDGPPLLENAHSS
Protocol: This Example illustrates that exemplary compounds of the present invention blockade the interaction of SOS1 to KRAS protein.
The ability of a compound of Formula (I) to block the interaction of SOS1 to KRAS was measured using a SOS1-KRAS binding assay kit (CAT #63ADK000CB16PEG, Cisbio). Utilizing HTRF (Homogeneous Time-resolved Fluorescence) technology, the assay enables simple and rapid characterization of compound and antibody blockers in a high throughput format. The interaction between Tag1-SOS1 and Tag2-KRAS-G12C is detected by using anti-Tag1-Terbium antibody (HTRF donor) and anti-Tag2-XL665 antibody (HTRF acceptor). When the donor and acceptor antibodies are brought into close proximity due to SOS1 and KRAS-G12C binding, excitation of the donor antibody triggers fluorescent resonance energy transfer (FRET) towards the acceptor antibody, which in turn emits specifically at 665 nm. This specific signal is directly proportional to the extent of KRAS-G12C/SOS1 interaction.
The assay was carried according to the manufacturer's instructions. Compounds at an initial concentration of 10 mM in DMSO were first serially diluted on a 384-well plate using assay buffer at a ratio of 1:3 for a total of 9 concentrations with each of a volume of 20 μL. Blank buffer was included as the negative control. The final compound solution was in the buffer solution with 1% DMSO. Then, in each well of a 384-well plate, a solution of 2 μL compound solution, 4 μL tagged SOS1 and KRAS (G12C) protein stocks, respectively, and 10 μM GTP was incubated for 15 min. 10 μL mixture of […] antibody and anti-Tag1-Terbium antibody was introduced to each individual well. After 2 hours incubation at room temperature, fluorescence readout was measured with a Pelkin Elmer multiple plate reader VICTOR Nivo.
Excitation was from over a range of 245-395 nm, and emission from the donor (emission 1) was detected at […] and emission from the acceptor (emission 2) was detected at (606.5-623.5) nm. The HTRF ratio was calculated using the formula: (emission 1 @665 nm/emission 2 @620 nm)×10000. Thus, compounds blocking KRAS-G12C/SOS1 interaction will cause a reduction in HTRF signal ratio. The IC50 values were then calculated with the Graph pad Prism software.
With Cc1nc(N[C@H](C)c2cccc(C(F)F)c2F)c2cc(N3CC(O)C3)c3nncn3c2n1 [Example 77] the IC50 was > 100 nM. With Cc1nc(N[C@H](C)c2cccc(C(F)F)c2F)c2cc(C(=O)NC(C)(C)C)c3ncnn3c2n1 [Example 10] the IC50 was > 100 nM. With Cc1nc(N[C@H](C)c2cccc(C(F)F)c2F)c2cc(C(=O)NC(C)(C)C)c3nnnn3c2n1 [Example 57] the IC50 was > 100 nM. Cc1nc(N[C@H](C)c2cc(N)cc(C(F)(F)F)c2)c2cc(N3CCOCC3)c3nnc(C)n3c2n1 [Example 87] was tested, and the IC50 was > 100 nM. In the case of Cc1c([C@@H](C)Nc2ncnc3c2cc(N2CCOCC2)c2nncn23)cccc1C(F)(F)F [Example 83], the IC50 is reported as > 100 nM. In the case of CCOC(=O)c1cc2c(N[C@H](C)c3cccc(C(F)F)c3F)nc(C)nc2n2cnnc12 [Example 53], the IC50 is reported as > 100 nM. In the case of Cc1nc(N[C@H](C)c2cccc(C(F)F)c2F)c2cc(C(=O)N(C(C)C)C(C)C)c3nnnn3c2n1 [Example 56], the IC50 is reported as > 100 nM. With Cc1nc(N[C@H](C)c2cccc(C(F)F)c2F)c2cc(C(=O)N3C4COCC3C4)c3nnnn3c2n1 [Example 65] the IC50 was > 100 nM. C[C@@H](Nc1ncnc2c1cc(NC1CCS(=O)(=O)CC1)c1nncn12)c1cccc(C(F)F)c1F [Example 89] was tested, and the IC50 was > 100 nM. Cc1nc(N[C@H](C)c2cccc(C(F)F)c2F)c2cc(C(=O)N3CC4(CCC4)C3)c3ncnn3c2n1 [Example 28] was tested, and the IC50 was > 100 nM. For CC(=O)N1CC=C(c2cc3c(N[C@H](C)c4cccc(C(F)F)c4F)nc(C)nc3n3cnnc23)CC1(C)C [Example 102], the IC50 was > 100 nM. CC(=O)N1CC=C(c2cc3c(N[C@H](C)c4cccc(C(F)F)c4F)nc(C)nc3n3cnnc23)C1 [Example 103] was tested, and the IC50 was > 100 nM. In the case of Cc1nc(N[C@H](C)c2cccc(C(F)F)c2F)c2cc(C(=O)N(C(C)C)C(C)C)c3ncnn3c2n1 [Example 7], the IC50 is reported as > 100 nM. For CC(=O)N1CCC(c2cc3c(N[C@H](C)c4cccc(C(F)F)c4F)nc(C)nc3n3c(C)nnc23)CC1 [Example 141], the IC50 was > 100 nM. With C[C@@H](Nc1ncnc2c1cc(N1CCOCC1)c1nncn12)c1cccc(C(F)(F)F)c1F [Example 84] the IC50 was > 100 nM. In the case of CC(=O)N1CC2(C1)CN(c1cc3c(N[C@H](C)c4cccc(C(F)F)c4F)ncnc3n3cnnc13)C2 [Example 82], the IC50 is reported as > 100 nM.

Same assay, conditions: read-out: PPI Assay IC50
With C[C@@H](Nc1ncnc2c1cc(C(=O)N(C)C)c1ncnn12)c1cccc(C(F)F)c1F [Example 40] the IC50 was < 100 nM. For C[C@@H](Nc1ncnc2c1cc(C(=O)N1C3COCC1C3)c1ncnn12)c1cccc(C(F)F)c1F [Example 46], the IC50 was < 100 nM. For COC1(c2cc3c(N[C@H](C)c4cc(N)cc(C(F)(F)F)c4)ncnc3n3nnnc23)CCN(C(C)=O)CC1 [Example 126], the IC50 was < 100 nM. With Cc1nc(N[C@H](C)c2cccc(C(F)F)c2F)c2cc(C(=O)N3CCOCC3(C)C)c3ncnn3c2n1 [Example 14] the IC50 was < 100 nM. For Cc1nc(N[C@H](C)c2cccc(C(F)F)c2F)c2cc(C(=O)N3CCN(CCS(C)(=O)=O)CC3)c3nnnn3c2n1 [Example 59], the IC50 was < 100 nM. Cc1nc(N[C@H](C)c2cccc(C(F)F)c2F)c2cc(C(=O)N3CCC34COC4)c3nnnn3c2n1 [Example 63] was tested, and the IC50 was < 100 nM. With [2H]C([2H])([2H])OC1(c2cc3c(N[C@H](C)c4cccc(C(F)F)c4F)ncnc3n3cnnc23)CCN(C(C)=O)CC1 [Example 133, (R)-1-(4-(4-((1-(3-(difluoromethyl)-2-fluorophenyl)ethyl)amino)-[1,2,4]triazolo[4′,3′:1,6]pyrido[2,3-d]pyrimidin-6-yl)-4-(methoxy-d3)piperidin-1-yl)ethan-1-one] the IC50 was < 100 nM. In the case of Cc1nc(N[C@H](C)c2cccc(C(F)F)c2F)c2cc(N3CC(C(=O)N(C)C)C3)c3nnnn3c2n1 [Example 94], the IC50 is reported as < 100 nM. For Cc1nc(N[C@H](C)c2cccc(C(F)F)c2F)c2cc([C@H]3CC[C@@H](O)CC3)c3nncn3c2n1 [Example 90-P1, Cis-4-(4-(((R)-1-(3-(difluoromethyl)-2-fluorophenyl)ethyl)amino)-2-methyl-[1,2,4]triazolo[4′,3′:1,6]pyrido[2,3-d]pyrimidin-6-yl)cyclohexan-1-ol], the IC50 was < 100 nM. With C[C@@H](Nc1ncnc2c1cc(C(=O)N1CCC13CNC3)c1ncnn12)c1cccc(C(F)F)c1F [Example 45] the IC50 was < 100 nM. With C[C@@H](Nc1ncnc2c1cc(C(=O)N1C3CCN(C)CC1C3)c1ncnn12)c1cccc(C(F)F)c1F (stereo partly shown) [Example 48] the IC50 was < 100 nM. In the case of CC(=O)N1CC2(CCN2C(=O)c2cc3c(N[C@H](C)c4cccc(C(F)F)c4F)nc(C)nc3n3nnnc23)C1 [Example 61], the IC50 is reported as < 100 nM. For Cc1nc(N[C@H](C)c2cccc(C(F)F)c2F)c2cc(C3CCSCC3)c3nncn3c2n1 [Example 138], the IC50 was < 100 nM. In the case of CC(=O)N1CCC(C)(c2cc3c(N[C@H](C)c4cccc(C(F)F)c4F)ncnc3n3cnnc23)CC1 [Example 128], the IC50 is reported as < 100 nM. In the case of C[C@@H](Nc1ncnc2c1cc(C(=O)N1CCN(CCS(C)(=O)=O)CC1)c1ncnn12)c1cccc(C(F)F)c1F [Example 41], the IC50 is reported as < 100 nM. With CC(=O)N1CC2(C1)CN(c1cc3c(N[C@H](C)c4cccc(C(F)F)c4F)nc(C)nc3n3cnnc13)C2 [Example 78] the IC50 was < 100 nM. With C[C@H](O)C(=O)N1CCC(c2cc3c(N[C@H](C)c4cccc(C(F)F)c4F)ncnc3n3cnnc23)CC1 [Example 72] the IC50 was < 100 nM. With C[C@@H](Nc1ncnc2c1cc(C(=O)N1CCCC13CCOC3)c1ncnn12)c1cccc(C(F)F)c1F (stereo partly shown) [Example 44] the IC50 was < 100 nM. With CC(=O)N1CC2(CCN2C(=O)c2cc3c(N[C@H](C)c4cccc(C(F)F)c4F)nc(C)nc3n3ncnc23)C1 [Example 30] the IC50 was < 100 nM. In the case of CC(=O)N1CC=C(c2cc3c(N[C@H](C)c4cccc(C(F)F)c4F)nc(C)nc3n3c(C)nnc23)CC1 [Example 104], the IC50 is reported as < 100 nM. C[C@@H](Nc1ncnc2c1cc(C1(O)CCS(=O)(=O)CC1)c1nncn12)c1cccc(C(F)F)c1F [Example 110] was tested, and the IC50 was < 100 nM. With C[C@@H](Nc1ncnc2c1cc(C(=O)N1C3CCC1COC3)c1ncnn12)c1cccc(C(F)F)c1F [Example 49] the IC50 was < 100 nM. Cc1nc(N[C@H](C)c2cccc(C(F)F)c2F)c2cc(C(=O)N3CCOCC3)c3nccn3c2n1 [Example 54, (R)-(4-((1-(3-(difluoromethyl)-2-fluorophenyl)ethyl)amino)-2-methylimidazo[1′,2′:1,6]pyrido[2,3-d]pyrimidin-6-yl)(morpholino)methanone] was tested, and the IC50 was < 100 nM. In the case of C[C@@H](Nc1ncnc2c1cc(C(=O)N1CCC13COC3)c1ncnn12)c1cccc(C(F)F)c1F [Example 43], the IC50 is reported as < 100 nM. In the case of Cc1nc(N[C@H](C)c2cccc(C(F)F)c2F)c2cc(C(=O)N3CCCCC3)c3ncnn3c2n1 [Example 16], the IC50 is reported as < 100 nM. With Cc1nc(N[C@H](C)c2cccc(C(F)F)c2F)c2cc(C(=O)N3C4CCC3COC4)c3nnnn3c2n1 [Example 64] the IC50 was < 100 nM. For CC(=O)N1CCC(c2cc3c(N[C@H](C)c4cccc(C(F)F)c4F)nc(C)nc3n3cnnc23)CC1(C)C (stereo partly shown) [Example 139], the IC50 was < 100 nM. For CC(=O)NC1(c2cc3c(N[C@H](C)c4cccc(C(F)F)c4F)ncnc3n3cnnc23)CCN(C(C)=O)CC1 [Example 134, (R)—N-(1-acetyl-4-(4-((1-(3-(difluoromethyl)-2-fluorophenyl)ethyl)amino)-[1,2,4]triazolo[4′,3′:1,6]pyrido[2,3-d]pyrimidin-6-yl)piperidin-4-yl)acetamide], the IC50 was < 100 nM. For Cc1nc(N[C@H](C)c2cccc(C(F)F)c2F)c2cc(C(=O)N3CC(O)C3)c3ncnn3c2n1 [Example 25], the IC50 was < 100 nM. Cc1nc(N[C@H](C)c2cccc(C(F)F)c2F)c2cc([C@H]3CC[C@H](O)CC3)c3nncn3c2n1 [Example 90-P2, trans-4-(4-(((R)-1-(3-(difluoromethyl)-2-fluorophenyl)ethyl)amino)-2-methyl-[1,2,4]triazolo[4′,3′:1,6]pyrido[2,3-d]pyrimidin-6-yl)cyclohexan-1-ol] was tested, and the IC50 was < 100 nM. For Cc1nc(N[C@H](C)c2cccc(C(F)F)c2F)c2cc(C(=O)N3CCCC34CCCC4)c3ncnn3c2n1 [Example 32], the IC50 was < 100 nM. Cc1nc(N[C@H](C)c2cccc(C(F)F)c2F)c2cc(C(=O)N3CCC4(CCOC4)C3)c3ncnn3c2n1 (stereo partly shown) [Example 34] was tested, and the IC50 was < 100 nM. For Cc1nc(N[C@H](C)c2cccc(C(F)F)c2F)c2cc(C3CCN(S(C)(=O)=O)CC3)c3nnnn3c2n1 [Example 143], the IC50 was < 100 nM. For COCC(=O)N1CCC(c2cc3c(N[C@H](C)c4cccc(C(F)F)c4F)nc(C)nc3n3nnnc23)CC1 [Example 144], the IC50 was < 100 nM. With Cc1nc(N[C@H](C)c2cccc(C(F)F)c2F)c2cc(C(=O)N3CCOC[C@@H]3C)c3ncnn3c2n1 [Example 12] the IC50 was < 100 nM. In the case of CC(=O)N1CCC(O)(c2cc3c(N[C@H](C)c4cccc(C(F)F)c4F)nc(C)nc3n3c(C)nnc23)CC1 [Example 111], the IC50 is reported as < 100 nM.
